Key:
[1] = tested on: T cells, myeloid cells, B cells, and NK cells; assay: mOX40L expression in splenic immune cells (flow cytometry); format: in vivo, C57BL/6 mice; conditions: LNP 50:10:38.5:1.5, IL:P 5.7, 1 mg/kg intravenously, 24 hours; vs Lipid 15 of Table 10f
Method: The ionizable lipid: helper lipid: cholesterol: PEG-lipid molar ratio of these LNPs was 50:10:38.5:1.5. Dialysis of the LNPs were performed using PBS. C57BL/6 female mice (6-8 weeks, n=4) were dosed at either LNP comprising Lipid 1 of Table 10e or the Lipid 15 of Table 10f at 1 mg/kg intravenously. At 24 hours, the spleen from the mice were collected for flow cytometry analysis. mOX40L transfection of Lipid 1 of Table 10e and Lipid 15 of Table 10f were compared in T cells, myeloid cells, B cells, and NK cells.

splenic T cells = assay: mOX40L expression in splenic T cells; format: in vivo, C57BL/6 mice; conditions: 1 mg/kg intravenously, 24 hours; IL:P 5.7, 50:10:38.5:1.5
Method: The ionizable lipid: helper lipid: cholesterol: PEG-lipid molar ratio of these LNPs was 50:10:38.5:1.5. C57BL/6 female mice (6-8 weeks, n=4) were dosed at 1 mg/kg intravenously. At 24 hours, the spleen from the mice were collected for flow cytometry analysis, tested for weight loss and measured for serum alanine aminotransferase (ALT) after blood collection. mOX40L expression was measured in splenic T cells.

Structure (SMILES): CCCCCCCCCCCCC(O)CN(CCCO)CCCCCCCC(=O)OC(CCCCCCCC)CCCCCCCC (centres unmarked) [Lipid 1 of Table 10e, heptadecan-9-yl 8-((3-hydroxypropyl)(2-hydroxytetradecyl)amino)octanoate]
- mOX40L transfection in splenic immune cells [1]: comparable or higher levels of mOX40L transfection
- mOX40L expression in splenic T cells (splenic T cells): resulted in expression of mOX40L in splenic T cells

Source: patent publication US12384741B2, “Lipid nanoparticle compositions for delivering circular polynucleotides” (Orna Therapeutics, Inc., priority 2021, dated 2025)
